Experimental data reported in paper PMC6308799, “In vitro and in vivo Inhibitory Activity of NADPH Against the AmpC BER Class C β-Lactamase” (Frontiers in Cellular and Infection Microbiology, 2018).

Experiments:
AmpC EC2 [1] = molecular target: T1, AmpC EC2 (Escherichia coli, UniProt A7TUE6); test: nitrocefin hydrolysis initial velocity at […] ([…] inhibition range for the set); type: biochemical
AmpC EC2 [2] = molecular target: T1, AmpC EC2; test: ITC (KD […]); also steady-state nitrocefin kinetics (competitive, Ki […]); type: binding
CMY-10 = molecular target: T2, CMY-10 (Klebsiella aerogenes, UniProt Q99QC1); test: nitrocefin hydrolysis initial velocity at […] NADPH; type: biochemical
T2 construct: gene blaCMY-10

CMY-2 = molecular target: T3, CMY-2 (Klebsiella pneumoniae, UniProt Q48434); test: nitrocefin hydrolysis initial velocity at […] NADPH; type: biochemical
T3 construct: gene blaCMY-2

AmpC EC2 [3] = molecular target: T1, AmpC EC2; test: nitrocefin hydrolysis initial velocity at […] NADPH; type: biochemical

Compound	nitrocefin hydrolysis initial velocity at 2 mM (~15-55% inhibition range for the) (AmpC EC2 [1])	Kd (AmpC EC2 [2]) [µM]	nitrocefin hydrolysis initial velocity at 2 mM NADPH (CMY-10)	nitrocefin hydrolysis initial velocity at 2 mM NADPH (CMY-2)	nitrocefin hydrolysis initial velocity at 2 mM NADPH (AmpC EC2 [3])
Cc1cc2nc3c(=O)[nH]c(=O)nc-3n(C[C@H](O)[C@H](O)[C@H](O)COP(=O)(O)OP(=O)(O)OC[C@H]3O[C@@H](n4cnc5c(N)ncnc54)[C@H](O)[C@@H]3O)c2cc1C [FAD]	all tested adenosine dinucleotides including FAD, NAD, NADP, and NADPH reduced the initial velocity of nitrocefin hydrolysis catalyzed by AmpC BER				
NC(=O)C1=CN([C@@H]2O[C@H](COP(=O)(O)OP(=O)(O)OC[C@H]3O[C@@H](n4cnc5c(N)ncnc54)[C@H](OP(=O)(O)O)[C@@H]3O)[C@@H](O)[C@H]2O)C=CC1 [NADPH]		40	NADPH also reduced the initial velocity of nitrocefin hydrolysis catalyzed by other class C β-lactamases including ACC-1, AmpC EC2, CMY-2, and CMY-10	NADPH also reduced the initial velocity of nitrocefin hydrolysis catalyzed by other class C β-lactamases including ACC-1, AmpC EC2, CMY-2, and CMY-10	NADPH also reduced the initial velocity of nitrocefin hydrolysis catalyzed by other class C β-lactamases including ACC-1, AmpC EC2, CMY-2, and CMY-10
NC(=O)c1ccc[n+]([C@@H]2O[C@H](COP(=O)([O-])OP(=O)(O)OC[C@H]3O[C@@H](n4cnc5c(N)ncnc54)[C@H](O)[C@@H]3O)[C@@H](O)[C@H]2O)c1 [NAD]	all tested adenosine dinucleotides including FAD, NAD, NADP, and NADPH reduced the initial velocity of nitrocefin hydrolysis catalyzed by AmpC BER				
